Reference: PubChem BioAssay (NCI)
“And” between values parts separate entries of the source, which are not always exact repeats. Equal entries are not always repeated.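 Five compound concentrations were applied to cells in 96-well plates for 48 hours; endpoints were derived by simple linear interpolation of the resulting dose-response curve. GI50: concentration for 50% inhibition of growth. TGI denotes the concentration required for complete inhibition of growth.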

Columns and labels:
Experiment in all cases: NCI-60 cell line screen, 48 h
[1] = tested on: SNB-19 CNS
[2] = tested on: MALME-3M melanoma
[3] = tested on: SF-268 CNS
[4] = tested on: SN12C renal
[5] = tested on: HOP-62 NSCLC
[6] = tested on: COLO 205 colon
[7] = tested on: A549 NSCLC
[8] = tested on: UACC-62 melanoma
[9] = tested on: SNB-75 CNS
[10] = tested on: UO-31 renal

COc1ccc(-c2c(N)n[nH]c2-c2cc(OC)c(OC)c(OC)c2)cc1
GI50 [1]: 0.403 µM | TGI [1]: > 100 µM | GI50 [2]: 22.5 µM | TGI [2]: > 100 µM | GI50 [3]: 0.676 µM | TGI [3]: > 48.4 µM | GI50 [4]: 0.635 µM | TGI [4]: > 100 µM | GI50 [5]: 0.387 µM | TGI [5]: > 100 µM | GI50 [6]: 0.363 µM | GI50 [7]: 0.147 µM | TGI [7]: > 100 µM | GI50 [8]: 0.14 µM | TGI [8]: > 100 µM | GI50 [9]: 0.216 µM | TGI [9]: > 100 µM | GI50 [10]: 0.926 µM | TGI [10]: > 68.7 µM

NS(=O)(=O)c1ccc(NC(=O)COC(=O)c2cccc3c(=O)c4ccccc4[nH]c23)cc1
TGI [1]: 45.2 µM | TGI [2]: 50.5 µM | TGI [3]: 36.9 µM | TGI [4]: 90 µM | TGI [5]: 40.2 µM | TGI [6]: > 100 µM | TGI [7]: > 100 µM | TGI [8]: 34.7 µM | TGI [9]: 38.5 µM | TGI [10]: > 87 µM

COc1ccc(C2=NOP(c3ccccc3)(c3ccccc3)(c3ccccc3)C2)cc1
TGI [1]: > 100 µM | TGI [2]: 50.9 µM | TGI [3]: > 100 µM | TGI [4]: > 100 µM | TGI [5]: > 100 µM | TGI [6]: 23.5 µM | TGI [7]: > 76.1 µM | TGI [8]: 53.2 µM | TGI [9]: > 89.4 µM | TGI [10]: > 100 µM

O=C(O)C(=O)CBr
GI50 [1]: > 100 µM | TGI [1]: > 100 µM | GI50 [2]: > 41.7 µM and 16.9 µM | TGI [2]: > 59.1 µM and 32.5 µM | GI50 [3]: > 85.2 µM and 18.3 µM | TGI [3]: > 100 µM and 32.5 µM | GI50 [4]: > 46.2 µM and 19.1 µM | TGI [4]: > 64 µM and 34.5 µM | GI50 [5]: > 100 µM and 19.3 µM | TGI [5]: > 100 µM and 38.1 µM | GI50 [6]: > 70.1 µM and 17.6 µM | TGI [6]: > 100 µM and 39.5 µM | GI50 [7]: > 100 µM and 25 µM | TGI [7]: > 100 µM and 52.2 µM | GI50 [8]: > 44.7 µM and 19 µM | TGI [8]: > 62.5 µM and 35.3 µM | GI50 [9]: > 100 µM and 25.2 µM | TGI [9]: > 100 µM and 60.3 µM | GI50 [10]: > 38 µM and 17.3 µM | TGI [10]: > 54.7 µM and 31.8 µM

COc1ccc(NC(=O)/C=C(C)/C=C/C=C(C)\C=C\C2=C(C)CCCC2(C)C)cc1
GI50 [1]: > 100 µM | TGI [1]: > 100 µM | GI50 [2]: 41.2 µM | TGI [2]: > 100 µM | GI50 [3]: > 100 µM | TGI [3]: > 100 µM | GI50 [4]: 97.3 µM | TGI [4]: > 100 µM | GI50 [5]: > 100 µM | TGI [5]: > 100 µM | GI50 [6]: 75.9 µM | TGI [6]: > 100 µM | GI50 [7]: 87.9 µM | TGI [7]: > 100 µM | GI50 [8]: 24.6 µM | TGI [8]: > 100 µM | GI50 [9]: 2.15 µM | TGI [9]: > 100 µM | GI50 [10]: > 100 µM | TGI [10]: > 100 µM

NCP(=O)(O)OCC(=O)O
TGI [1]: > 100 µM | TGI [2]: > 100 µM | TGI [3]: > 100 µM | TGI [4]: > 100 µM | TGI [5]: > 100 µM | TGI [6]: > 100 µM | TGI [7]: > 100 µM | TGI [8]: > 100 µM | TGI [9]: > 100 µM | TGI [10]: > 100 µM

N=C(N)SCCc1ccccn1
TGI [1]: > 100 µM | TGI [2]: > 100 µM | TGI [3]: > 100 µM | TGI [4]: > 100 µM | TGI [5]: > 100 µM | TGI [6]: > 100 µM | TGI [7]: > 100 µM | TGI [8]: > 100 µM | GI50 [9]: 39.7 µM and > 100 µM | TGI [9]: > 100 µM | TGI [10]: > 100 µM

CCCCCc1c(C)[nH]c(/C=C2\N=C(c3ccc[nH]3)C=C2OCc2ccccc2)c1C
GI50 [1]: 0.21 µM and 0.112 µM | TGI [1]: 1.96 µM | GI50 [2]: 0.116 µM and 0.0585 µM | TGI [2]: 0.494 µM and 0.209 µM | GI50 [3]: 0.0488 µM and 0.0385 µM | TGI [3]: 1.6 µM and 1.33 µM | GI50 [4]: 0.0703 µM and 0.0458 µM | TGI [4]: 1.43 µM and 0.268 µM | GI50 [5]: 0.164 µM and 0.0925 µM | TGI [5]: 1.89 µM and 1.37 µM | GI50 [6]: 0.0436 µM and 0.026 µM | TGI [6]: 0.661 µM and 0.159 µM | GI50 [7]: 0.0328 µM and 0.0283 µM | TGI [7]: 0.381 µM and 0.0957 µM | GI50 [8]: 0.023 µM | TGI [8]: 0.0538 µM and 0.0506 µM | GI50 [9]: 0.0803 µM and 0.0214 µM | TGI [9]: 0.577 µM and 0.0825 µM | GI50 [10]: 0.103 µM and 0.0318 µM | TGI [10]: 0.282 µM and 0.128 µM

C1C[OH+]CC[OH+]CC[OH+]CC[OH+]CC[OH+]CC[OH+]1.[Cl-].[Nb+5]
GI50 [1]: > 100 µM | TGI [1]: > 100 µM | GI50 [2]: > 100 µM | TGI [2]: > 100 µM | GI50 [3]: > 100 µM | TGI [3]: > 100 µM | GI50 [4]: > 100 µM | TGI [4]: > 100 µM | GI50 [5]: > 100 µM | TGI [5]: > 100 µM | GI50 [6]: > 100 µM | TGI [6]: > 100 µM | GI50 [7]: > 100 µM | TGI [7]: > 100 µM | GI50 [8]: > 100 µM | TGI [8]: > 100 µM | GI50 [9]: 39.6 µM | TGI [9]: > 100 µM | GI50 [10]: 68.6 µM | TGI [10]: > 100 µM

ClCC#CCSc1ncnc2c1ncn2CC#CCCl
GI50 [1]: 1.64 µM | TGI [1]: 3.61 µM | GI50 [2]: 1.88 µM | TGI [2]: 6.42 µM | GI50 [3]: 1.33 µM | TGI [3]: 3.09 µM | GI50 [4]: 1.55 µM | TGI [4]: 3.65 µM | GI50 [5]: 1.28 µM | TGI [5]: 2.67 µM | GI50 [6]: 1.56 µM | TGI [6]: 3.03 µM | GI50 [7]: 1.76 µM | TGI [7]: 4.35 µM | GI50 [8]: 1.17 µM | TGI [8]: 2.66 µM | GI50 [9]: 1.42 µM | TGI [9]: 3.06 µM | GI50 [10]: 1.33 µM | TGI [10]: 3.38 µM

CCOC(=O)Cc1csc(NC(=O)COC(=O)c2ccc(OC)cc2)n1
GI50 [1]: > 100 µM | TGI [1]: > 100 µM | GI50 [2]: 64.9 µM | TGI [2]: > 100 µM | GI50 [3]: 16.6 µM | TGI [3]: 40.9 µM | GI50 [4]: > 100 µM | TGI [4]: > 100 µM | GI50 [5]: > 78.8 µM | TGI [5]: > 100 µM | GI50 [6]: > 95.9 µM | TGI [6]: > 100 µM | GI50 [7]: > 100 µM | TGI [7]: > 100 µM | GI50 [8]: > 100 µM | TGI [8]: > 100 µM | GI50 [9]: 28.3 µM | TGI [9]: > 56.6 µM | GI50 [10]: 5.76 µM | TGI [10]: 11.1 µM

CC1(C)[C@@H](OC(N)=O)C=C[C@]2(C=O)[C@H]3CC[C@]4(C)[C@@H](c5ccc(=O)oc5)[C@@H](Cl)C[C@]4(O)C3=CC[C@@H]12
GI50 [1]: 0.00782 µM | TGI [1]: 0.0253 µM | GI50 [2]: 0.00525 µM | TGI [2]: 0.0109 µM | GI50 [3]: 0.00301 µM | TGI [3]: 0.00621 µM | GI50 [4]: 0.00293 µM | TGI [4]: 0.0136 µM | GI50 [5]: 0.00331 µM | TGI [5]: 0.00699 µM | GI50 [6]: 0.00685 µM | TGI [6]: 0.0178 µM | GI50 [7]: 0.00361 µM | TGI [7]: 0.00752 µM | GI50 [8]: 0.00491 µM | TGI [8]: 0.0105 µM | GI50 [9]: 0.00407 µM | TGI [9]: 0.00932 µM | GI50 [10]: 0.00524 µM | TGI [10]: 0.0124 µM

COC(=O)C1CC(C(=O)OC)c2nc3cc(C)c(C)cc3nc21 (stereo not given)
TGI [1]: > 100 µM | TGI [2]: > 100 µM | TGI [3]: > 100 µM | TGI [4]: > 100 µM | TGI [5]: > 100 µM | TGI [6]: > 100 µM | TGI [7]: > 100 µM | TGI [8]: > 100 µM | TGI [9]: > 100 µM | TGI [10]: > 100 µM

CO[C@H](C(=O)O)[C@@H]1Cc2cc3cc(OC4CC(OC5CC(O)C(O)C(C)O5)C(O)C(C)O4)c(C)c(O)c3c(O)c2C(=O)[C@H]1OC1CC(OC2CC(OC3CC(C)(O)C(O)C(C)O3)C(O)C(C)O2)C(O)C(C)O1 (stereo not given in full)
GI50 [1]: 0.201 µM | TGI [1]: > 32.5 µM | GI50 [2]: 0.205 µM | TGI [2]: 1.4 µM | GI50 [3]: 0.283 µM | TGI [3]: > 32.5 µM | GI50 [4]: 0.179 µM | TGI [4]: > 32.5 µM | GI50 [5]: 0.211 µM | TGI [5]: > 32.5 µM | GI50 [6]: 0.285 µM | TGI [6]: 2.57 µM | GI50 [7]: 0.257 µM | TGI [7]: > 32.5 µM | GI50 [8]: 0.108 µM | TGI [8]: 0.496 µM | GI50 [9]: 0.128 µM | TGI [9]: 0.741 µM | GI50 [10]: 0.637 µM | TGI [10]: 5.33 µM
